According to ChEMBL document CHEMBL3399955, “Synthesis of a new series of dithiocarbamates with effective human carbonic anhydrase inhibitory activity and antiglaucoma action” (Bioorg Med Chem, 2015):

Species: Homo sapiens
Experiment: Reduction in intraocular pressure in patient with open-angle glaucoma
Type: functional, Eye

SMILES	inhibition (INH) [%]
CC(=O)Nc1nnc(S(N)(=O)=O)s1 [ACETAZOLAMIDE]	25

Species: Homo sapiens
Experiment: Reduction in intraocular pressure in glaucoma patient
Type: functional, Eye

SMILES	Activity [mmHg]
CCN[C@H]1C[C@H](C)S(=O)(=O)c2sc(S(N)(=O)=O)cc21 [DORZOLAMIDE]	4

Target: Carbonic anhydrase 9 (Homo sapiens, UniProt Q16790)
Experiment: Inhibition of human recombinant carbonic anhydrase 9 expressed in Escherichia coli pre-incubated for 15 mins by stopped-flow CO2 hydration assay

SMILES	Ki [nM]
OCCCCNC(=S)S	0.97
OCCCCCNC(=S)S	2.6
S=C(S)NC1CN2CCC1CC2 (centres undefined)	93.5
S=C(S)N[C@H]1CN2CCC1CC2	71.8
S=C(S)N[C@@H]1CN2CCC1CC2	82.4
S=C(S)N1CCCCC1	0.92
OC1CCCN(C(=S)S)C1 (centres undefined)	7.6
O=C(O)C1CCCN(C(=S)S)C1 (centres undefined)	67.1
S=C(S)NCCc1ccccc1	25.1

Continued, values first:

Ki [nM]	SMILES
86.2	O=C(O)[C@H]1CCCN(C(=S)S)C1
79.9	O=C(CN1CCN(C(=S)S)CC1)NC1CCCCC1
77.9	O=C(O)C1CCN(C(=S)S)CC1
72	O=C(O)C1CCCCN1C(=S)S (centres undefined)
55.1	CC1COCCN1C(=S)S (centres undefined)
41.3	O=C(O)[C@@H]1CCCN(C(=S)S)C1
37.9	CN(C)CCNC(=S)S
9.5	CC(=O)NC1CCCN(C(=S)S)C1 (centres undefined)
6.7	O=C(O)C1COCCN1C(=S)S (centres undefined)
0.91	OCCCNC(=S)S
0.91	NS(=O)(=O)c1ccc(CCNC(=S)S)cc1

Tested on: Oryctolagus cuniculus
Experiment: Antiglaucoma activity in New Zealand albino rabbit model of glaucoma assessed as reduction in intraocular pressure dosed as 2% eye drops immediately after injection of hypertonic saline measured 2 hrs post dose
Type: functional

SMILES	Activity [mmHg]
CCN[C@H]1C[C@H](C)S(=O)(=O)c2sc(S(N)(=O)=O)cc21 [DORZOLAMIDE]	3

Tested on: Oryctolagus cuniculus
Experiment: Antiglaucoma activity in New Zealand albino rabbit model of glaucoma assessed as reduction in intraocular pressure dosed as 2% eye drops immediately after injection of hypertonic saline measured 1 hr post dose
Type: functional

SMILES	Activity [mmHg]
CCN[C@H]1C[C@H](C)S(=O)(=O)c2sc(S(N)(=O)=O)cc21 [DORZOLAMIDE]	4
